pKd: −log10 of the molar value.

This test deals with T1, human α-galactosidase A (GLA; α-Gal A) (Homo sapiens, UniProt P06280).
T1 construct: heart tissue cryosections; no tag stated
T1 sequence (P06280 32-429): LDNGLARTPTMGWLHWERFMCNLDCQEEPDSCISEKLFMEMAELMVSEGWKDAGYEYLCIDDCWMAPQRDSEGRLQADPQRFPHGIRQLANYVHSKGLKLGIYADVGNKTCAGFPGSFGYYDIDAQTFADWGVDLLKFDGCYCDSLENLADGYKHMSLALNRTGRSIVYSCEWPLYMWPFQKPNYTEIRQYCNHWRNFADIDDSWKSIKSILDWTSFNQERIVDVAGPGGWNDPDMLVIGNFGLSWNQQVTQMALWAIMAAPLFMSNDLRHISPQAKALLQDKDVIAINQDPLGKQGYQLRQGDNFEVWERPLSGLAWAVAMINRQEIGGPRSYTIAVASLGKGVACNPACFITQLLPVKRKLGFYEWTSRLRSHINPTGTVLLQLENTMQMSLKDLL
The test can be described thus: saturation autoradiography on heart sections, one-site specific binding fit. As to conditions: pH 5.0 McIlvaine buffer, 23 °C, 60 min; nonspecific binding defined with [19F]AGAL; active site; covalent (proposed); labelled compound; GLA in tissue sections of AAVGLA-treated Gla knockout mice.

Broadly, the pKd is the negative decadic logarithm of the Kd, by convention in mol/L. As to `O=C(CCCCCCCn1cc(CCCF)nn1)N1C2C(O)C(O)C(O)C(CO)C21` (stereo not shown) [[^18F]AGAL], the pKd was approximately 7.70.
